Literature values in US8911966B2, “Efficient astaxanthin production strains derived from Haematococcus pluvialis” (Cognis IP Management GmbH, priority 2007, dated 2014).

Details: versus α-tocopherol

Question: For `CC1=C(/C=C/C(C)=C/C=C/C(C)=C/C=C/C=C(C)/C=C/C=C(C)/C=C/C2=C(C)C(=O)C(O)CC2(C)C)C(C)(C)CC(O)C1=O` (stereo not drawn) [astaxanthin, 3,3′-dihydroxy-β,β-carotene-4,4′-dione], which “antioxidant activities relative to α-tocopherol (vitamin E)” value is on record?
Answer: Its value is “over 500 times”.
